Source: ChEMBL document CHEMBL3507680, “University of Dundee, Gates Library screen for HepG2 cell viability”

Experiment: Human HepG2 cell viability assay in 384 well format
Type: toxicity, cell-based
Parameters: dose 125 nL, time 70.5 hour; concentration not given beside the values
Details: HepG2 cells, read-out: Inhibition

Compound | cytotoxicity at 70.5 h [%]
CN(C)[C@@H]1CCN(C(=O)c2ccco2)[C@H]1Cc1cnn(C)c1 | -12.7
CC(=O)N(CCc1nc(-c2cc(C(N)=O)co2)cs1)C(C)C | 2.32
CNC(=O)C(NC(C)=O)c1ccc(F)c(F)c1 (configuration not stated) | -1.65
CN(C)CCN1CCC(CNCc2c[nH]nc2C(C)(C)C)CC1 | 28.4
CC(NCc1c(C(C)C)nn(C)c1N(C)C)C(=O)NC1CCCC1 (configuration not stated) | -6.36
N#Cc1cccc(OCCN2CCCC2C(=O)Nc2nccs2)c1 (configuration not stated) | 29
O=C(NC[C@H]1OC[C@@H](NC2CCC(F)(F)CC2)[C@@H]1O)C1CC1 | -7.04
Cc1ccoc1C(=O)N1CCNCC1C(=O)NCc1ccncc1 (configuration not stated) | 3.11
CCOCC(=O)N1C[C@@H](O)[C@H](N2CCN(c3ccccc3)CC2)C1 | -3.95
O=C(CCCn1cncn1)NC1(c2ccccc2)CCC1 | -4.44
CSc1ccc(C(=O)N2C[C@H]3CC[C@@H]2CN(Cc2ccccc2)C3)cc1 | -0.304
CCCc1n[nH]c(=O)n1[C@@H](CC)c1ccccc1 | -10.8
Cc1ccc(C(=O)N2CCC3(CCC(=O)N(C(C)C)C3)CC2)c(O)c1 | 29.9
CN(C)c1cnn(CC(=O)N2CCCCCC2)c(=O)c1 | -0.929
CCn1ccnc1CN1CCCN(C(=O)c2ccsc2)CC1 | -2.37
CC(=O)N1N=C(COc2ccc(C)cc2)OC1c1ccc(N(C)C)cc1 (configuration not stated) | -6.08
CNC(=O)C(NC(=O)c1nccn2ccnc12)c1ccc(F)c(F)c1 (configuration not stated) | -1.99
CC(C)c1nnc2n1CCN(C(=O)c1cn(-c3ccccc3)nn1)C2 | -6.83
CCC(CNC(=O)N1CCOCC2(CCOCC2)C1)c1ccccc1 (configuration not stated) | -5.59
Cc1nc(NC(=O)COCC2CC2)ccc1Br | -8.55
COCc1cc(N2C[C@@H](C)[C@](O)(C3CC3)C2)ncn1 | 0.518
O=C(NC1(c2nccs2)CCCC1)c1[nH]nc(C2CC2)c1Cl | 3
N#Cc1ccc(S(=O)(=O)Nc2ccccc2C#N)cn1 | -6

Compound | cytotoxicity at 70.5 h [%]
CC(O)CN1CCN(C(=O)c2ccn(-c3cccc(Cl)c3)n2)CC1 (configuration not stated) | 13.7
Oc1cccc(CNCc2ccc(-n3cncn3)nc2)c1 | 0.561
O=C(N[C@@H]1CN(c2ncccn2)C[C@@H]2CCCO[C@@H]21)c1ccnnc1 | -6.03
CC(C)SCc1cccc(NC(=O)NC(C)c2nc[nH]n2)c1 (configuration not stated) | -7.97
COc1cccc(-c2nc(CNCCn3cccn3)cs2)c1 | -7.96
CC(Cc1c(F)cccc1F)NC(=O)Nc1cnn(CC(N)=O)c1 (configuration not stated) | -3.56
CC(Cn1cnc2cn(C)nc2c1=O)Oc1cccnc1 (configuration not stated) | 20.4
Cc1cc(N2CCc3c(ncn3C)C2)nc(N)n1 | -0.513
O=C(CCn1ccc2ccc(F)cc21)/N=c1\[nH]nc(C2CCCO2)s1 (configuration not stated) | -20.2
CC(C)CC(C)NC1CCN(c2ccc(-c3cscn3)cc2)CC1 (configuration not stated) | -15.5
CN(C)CCN1C(=O)CCC12CCCN(C(=O)c1ccncc1F)C2 (configuration not stated) | 15.9
CO[C@H]1CCN(c2ncc(F)cn2)[C@@H]2CN(Cc3ccco3)C[C@H]12 | -6.95
Cc1cc(C(=O)NC(C)CC(=O)c2cccs2)n(C)n1 (configuration not stated) | -12.7
COC(=O)c1ccc(-c2noc(CN(CCO)Cc3cccs3)n2)cc1 | -10.2
CN(C)C(=O)CN1CCO[C@H]2CN(Cc3ccoc3)C[C@H]21 | -4.25
CN1CCn2nc(-c3nc4ccccc4n3C)cc2C1 | 32.2
COCCN1CCN(C(=O)c2ccc(COC)o2)[C@H]2CS(=O)(=O)C[C@H]21 | 11.2
CC(=O)N1CCCN(Cc2csc(C)n2)c2ccccc21 | -2.52
CCCn1ncc(C(=O)N(CCOC)Cc2c(C)nn(CC)c2C)c1C | -7.73
CCCNC(=O)Cc1c(C)nc2c(c1C)c(=O)[nH]n2C | 1.36
c1cnc(N2CCC3(CC2)CC(NCC2CC2)c2ccccc23)nc1 (configuration not stated) | 11.4
COc1cccc(CN(C)Cn2nc(C(C)(C)C)ccc2=O)c1 | 2.69
CC(C)c1cc(C(=O)N2CCCN(CCCc3ccccc3)CC2)[nH]n1 | -8.74

Compound | cytotoxicity at 70.5 h [%]
Cn1c(Cn2ncc(N3CCCC3)cc2=O)nc2ccccc21 | 25.6
CCc1cnc(CN(C)C(=O)NC2CCN(CC3CC3)C2)s1 (configuration not stated) | 25.5
Cc1ncc(CC(=O)N2CCCC(COc3ccccc3F)C2)c(=O)[nH]1 (configuration not stated) | -9.07
O=C(CCN1CCNCC1)N1CCC2(CC1)c1ccccc1CC2O (configuration not stated) | -6.68
Cc1ccc(CC(=O)N2CCN(CC(O)C(C)(C)C)CC2)cn1 (configuration not stated) | 0.113
CN1CCC(N2CCOC3(CCCC3)C2)C1=O (configuration not stated) | 5.41
COCCN1CCC(NC(=O)Cn2cc(C)c3ccccc32)CC1 | 12.3
CS(=O)(=O)Cc1nc(CN2CCc3ccccc3CC2)cs1 | 5.16
O=C(N[C@@H]1CCN(C(=O)c2ccc(F)cc2Cl)C[C@H]1O)c1ccccn1 | -6.49
C[C@@H](CO)Nc1nccc(-c2cnc3sc(Cl)cn3c2=O)n1 | -8.27
CN(C)C(=O)c1cn2cc(-c3cccc(Cl)c3)n(CC3CC3)c(=O)c2n1 | -5.52
Cc1cc(CN2CCC(C(=O)O)(n3ccc(-c4ccco4)n3)CC2)on1 | -2.92
Cc1cc(Br)ccc1C(=O)Nc1c(C(N)=O)n[nH]c1C | -9.24
CC(C)COCC1CN(Cc2ccsc2)Cc2ncn(C)c21 (configuration not stated) | -9.98
CCOc1ccc(N2CCCN=C2NC(=O)c2cccc(C)c2)cc1 | -6.22
CC(C)Cn1cnc2ccc(NC(=O)CCCn3cccn3)cc2c1=O | -2.92
Fc1ccc(Sc2ccccc2CNC2=NCCN2)cc1 | -5.29
CC(C)(C)NC(=O)C1CSCN1S(=O)(=O)c1cccc(F)c1 (configuration not stated) | -9.43
CN(C)C[C@H]1C[C@@H]2CN(C(=O)c3ccco3)C[C@@H]2O1 | -2.65
c1ccc(CN(Cc2ncc[nH]2)Cc2nccs2)cc1 | -14.7
CN(C)C(=O)CN1CCCC(c2nccnc2-c2cccc(Cl)c2)C1 (configuration not stated) | 1.03
COCCC(=O)Nc1cnn(COc2ccc(F)cc2Cl)c1 | 27.4
O=C1CCc2ccccc2N1CCCn1cnnn1 | -7.93

Compound | cytotoxicity at 70.5 h [%]
O=C(NCCN1CCOCC1)NCc1ccccc1-n1cccn1 | -0.678
COc1cccc([C@H]2CN(C(=O)c3cc(C)on3)C[C@@H]2N)c1 | -10.9
CC(C)(CNC(=O)Nc1nccs1)N1CCOCC1 | -6.21
Clc1cccc(Cl)c1CN(CCCN1CCOCC1)Cc1cccnc1 | -11.4
CC(C)c1nn(C)c(N2CCOCC2)c1CNCCS(C)(=O)=O | 3.3
CC(C(=O)N1CCCN(c2ccccc2C#N)CC1)n1cccn1 (configuration not stated) | -7.8
O=C(C1CC1)N1CCC2(COCc3cnc(N4CCOCC4)nc32)C1 (configuration not stated) | -12.6
O=c1[nH]c(N2CCN(C3CC3)CC2)nc2c1cnn2-c1ccccc1 | -6.97
O=C(c1cnc(-c2cccnc2)nc1)N1CCC(c2ccncc2)CC1 | -5.85
CC(C)c1nc2c(n1C)CCN(CCS(=O)(=O)c1ccccc1)C2 | -12.4
Cc1cccc(C)c1C(=O)N1C[C@@H](CN2CCOCC2)[C@@H](CO)C1 | -7.08
CC(C)c1nc(CN2CCOC(Cn3cccn3)C2)no1 (configuration not stated) | 1.63
CCCS(=O)(=O)N1CCC2(CC1)CC(N1CCCC1)c1ccccc12 (configuration not stated) | -8.52
CCCc1noc(C2CCCCN2C(=O)C2CCCC2)n1 (configuration not stated) | 32.2
COc1cc(NC(=O)NCC2CCCO2)cc(OC)c1OC (configuration not stated) | -5.38
COc1ccc(C(=O)NCc2cccnc2N2CCOCC2)o1 | -0.423
Cc1ccc2c(n1)N(CC(C)C)CCN(S(C)(=O)=O)C2 | -6.3
CN(Cc1ncnn1C1Cc2ccccc2C1)C1CCS(=O)(=O)C1 (configuration not stated) | -2.74
NC(=O)c1csc(N2CCCC(c3nc4ccccc4[nH]3)C2)n1 (configuration not stated) | -2.59
NC(=O)C(CNC(=O)Cc1ccc(F)cc1)Cc1ccc(F)cc1 (configuration not stated) | -7.46
c1cncc(OC[C@@H]2CC[C@H]3[C@H](CCN3Cc3cccs3)O2)c1 | -4.43
Cc1nc2c(c(=O)[nH]1)CCN(C(=O)c1[nH]nc3c1CC(C)CC3)C2 (configuration not stated) | 2.4
CNC(=O)N1CCC2(CC1)CN(C)Cc1cc(F)ccc12 | 2.33

Compound | cytotoxicity at 70.5 h [%]
c1ccc(-c2nccc(CNCC3CCCN3c3cccnn3)n2)cc1 (configuration not stated) | 39.7
Cc1nc(C2CCN(C(=O)c3cscn3)CC2)c2sccn12 | -1.33
Cc1ncoc1C(=O)N1C[C@@H]2CN(CC3CC3)CCO[C@@H]2C1 | 10.6
CC(C)NC(=O)CCNC(=O)CCc1cc(Cl)cs1 | -8.99
Cc1ccc(NC(=O)NC(C)c2nc[nH]n2)s1 (configuration not stated) | -8.03
CCOCCN1CCN(CCC(=O)N2CCCCC2)CC1 | -8.84
Cc1cccc(CN2C(=O)CC[C@@H]3[C@H]2CCN3C(=O)c2ccsc2)n1 | -12.3
COc1ccc(CCNCc2ccco2)cc1OC | -6.05
CC(C)(C)C(=O)NCc1nccn1CCc1ccccc1 | -5.7
NCC1Cc2cc(Cl)cc(-c3cncc(C(=O)N4CCCCC4)n3)c2O1 (configuration not stated) | -6.78
CC(=O)N1CCCC(c2ccc(Br)cn2)C1 (configuration not stated) | -6.22
CN1[C@H]2CC[C@@H]1CN(c1nc(-c3ccncc3)nc3c1cnn3C)CC2 | -2.38
COCCN(CCOC)Cc1c(C)nc2ccccc2c1O | 5.31
CN(C)CCOC1CC2(CCN(c3cnccn3)CC2)c2ccccc21 (configuration not stated) | 31.5
O=C(NCc1cn2c(n1)SCC2)c1ccc(CN2CCCCC2)cc1 | 2.13
COc1ncccc1C(=O)N1CC[C@]2(C[C@@H](Oc3cccnc3)CO2)C1 | 25.3
CS(=O)(=O)NC1CCN(Cc2coc(-c3ccccc3)n2)CC1 | -9.14
CCNC(=O)C1CCCN(C(=O)Nc2ccc3c(c2)CCCN3C)C1 (configuration not stated) | -9.82
CS(=O)(=O)NCCNC(=O)C1(c2cccc(Cl)c2)CC1 | -4.01
COc1ncccc1C(=O)N1CC[C@H]2C[C@@H](c3nccs3)O[C@@H]2C1 | -23.1
